Data taken from patent US12178210B2, “Insect attractant and killing system” (priority 2020, dated 2024).
Like-named read-outs stand apart in the source and are kept apart here.

Key:
[1] = for Attractant Release Rate (5-day average per time point): 15 g
Description: All prototype lure devices (i.e., the attractant receptacle and permeable membrane with enclosed volatile insect attractant) were constructed using polypropylene/calcium carbonate film (UV8) for the permeable membrane and Scotchpak™ (3M) polyester laminate film for the impermeable barrier material. Each lure device measured approximately 11.5 cm×5.5 cm with a 1.6 mm ( 1/16 in) diameter spherical punch in the impermeable layer exposing the membrane and an ˜8 mm ( 5/16 in) diameter heat seal around the circumference of the punch (referred to as a ring seal). […] Prior to being deployed the lures were weighed on an analytical balance (Sartorius, Universal; resolution of 0.01 g). Prototype lures were attached to a cord that ran the length of ventilated laboratory fume hood, with 5-8 cm (2-3 in) separating each lure in an open, ventilated room at the indicated temperature (18-20° C. or 39-41° C.). Every 2-3 days the lures were removed from the cord and weighed on the same scale. Lure weight was recorded and the weight loss (g/day) was calculated. In addition to prototype lures, two controls were included in the study consisting of a current Suterra lure product (WHF lure) and a competitor product (Comp. Prod. 1).

[2] = field, Valencia
Description: Every two weeks samples of the attractant were weighed to determine the mass. From the mass, the mass that had been released, the mass remaining, and the amount of ammonia released was determined.

SMILES: N.N.O=C(O)O [Ammonium Carbonate, ammonium carbonate]
- Release Rate ([1]; 40° C., 16 hours, UV8 membrane, 1.6 mm orifice): 0.39 g/day
- Release Rate ([1]; 40° C., 16 hours, second, unexplained block of rows): 0.02 g/day
- Release Rate ([1]; 40° C., 24 hours, UV8 membrane, 1.6 mm orifice): 0.37 g/day
- Release Rate ([1]; 40° C., 24 hours, second, unexplained block of rows): 0.03 g/day
- Release Rate ([1]; 40° C., 51 hours, UV8 membrane, 1.6 mm orifice): 0.36 g/day
- Release Rate ([1]; 40° C., 51 hours, second, unexplained block of rows): 0.05 g/day
- Release Rate ([1]; 40° C., 88 hours, UV8 membrane, 1.6 mm orifice): 0.36 g/day
- Release Rate ([1]; 40° C., 88 hours, second, unexplained block of rows): 0.09 g/day
- Release Rate ([1]; 40° C., 96 hours, UV8 membrane, 1.6 mm orifice): 0.36 g/day
- Release Rate ([1]; 40° C., 96 hours, second, unexplained block of rows): 0.09 g/day
- Release Rate ([1]; 40° C., 112 hours, UV8 membrane, 1.6 mm orifice): 0.36 g/day
- Release Rate ([1]; 40° C., 112 hours, second, unexplained block of rows): 0.10 g/day
- Release Rate ([1]; 40° C., 120 hours, UV8 membrane, 1.6 mm orifice): 0.36 g/day
- Release Rate ([1]; 40° C., 120 hours, second, unexplained block of rows): 0.11 g/day
- Release Rate ([1]; 40° C., 144 hours, UV8 membrane, 1.6 mm orifice): 0.36 g/day
- Release Rate ([1]; 40° C., 144 hours, second, unexplained block of rows): 0.13 g/day
- Release Rate ([1]; 40° C., 168 hours, UV8 membrane, 1.6 mm orifice): 0.35 g/day
- Release Rate ([1]; 40° C., 168 hours, second, unexplained block of rows): 0.15 g/day
- Attractant Release Rate (5-day average per time point) ([1]; 40° C., day 5, UV8 membrane, 1.6 mm orifice): 391.6 mg/day
- Attractant Release Rate (5-day average per time point) ([1]; 40° C., day 10, UV8 membrane, 1.6 mm orifice): 402.8 mg/day
- Attractant Release Rate (5-day average per time point) ([1]; 40° C., day 15, UV8 membrane, 1.6 mm orifice): 396.5 mg/day
- Attractant Release Rate (5-day average per time point) ([1]; 40° C., day 20, UV8 membrane, 1.6 mm orifice): 316.7 mg/day
- Attractant Release Rate (5-day average per time point) ([1]; 40° C., day 25, UV8 membrane, 1.6 mm orifice): 198.0 mg/day
- Attractant Release Rate (5-day average per time point) ([1]; 40° C., day 30, UV8 membrane, 1.6 mm orifice): 156.0 mg/day
- Attractant Release Rate (5-day average per time point) ([1]; 40° C., day 35, UV8 membrane, 1.6 mm orifice): 112.0 mg/day
- Attractant Release Rate (5-day average per time point) ([1]; 40° C., day 40, UV8 membrane, 1.6 mm orifice): 108.4 mg/day
- Attractant Release Rate (5-day average per time point) ([1]; 40° C., day 45, UV8 membrane, 1.6 mm orifice): 100.4 mg/day
- Attractant Release Rate (5-day average per time point) ([1]; 40° C., day 49, UV8 membrane, 1.6 mm orifice): 98.0 mg/day
- Attractant Release Rate (5-day average per time point) ([1]; 40° C., day 55, UV8 membrane, 1.6 mm orifice): 87.7 mg/day
- Attractant Release Rate (5-day average per time point) ([1]; Ambient Temperature, day 5, UV8 membrane, 1.6 mm orifice): 97 mg/day
- Attractant Release Rate (5-day average per time point) ([1]; Ambient Temperature, day 10, UV8 membrane, 1.6 mm orifice): 99.5 mg/day
- Attractant Release Rate (5-day average per time point) ([1]; Ambient Temperature, day 15, UV8 membrane, 1.6 mm orifice): 101.9 mg/day
- Attractant Release Rate (5-day average per time point) ([1]; Ambient Temperature, day 20, UV8 membrane, 1.6 mm orifice): 104.2 mg/day
- Attractant Release Rate (5-day average per time point) ([1]; Ambient Temperature, day 25, UV8 membrane, 1.6 mm orifice): 100.5 mg/day
- Attractant Release Rate (5-day average per time point) ([1]; Ambient Temperature, day 30, UV8 membrane, 1.6 mm orifice): 101.3 mg/day
- Attractant Release Rate (5-day average per time point) ([1]; Ambient Temperature, day 35, UV8 membrane, 1.6 mm orifice): 100.0 mg/day
- Attractant Release Rate (5-day average per time point) ([1]; Ambient Temperature, day 40, UV8 membrane, 1.6 mm orifice): 86.0 mg/day
- Attractant Release Rate (5-day average per time point) ([1]; Ambient Temperature, day 45, UV8 membrane, 1.6 mm orifice): 86.5 mg/day
- Attractant Release Rate (5-day average per time point) ([1]; Ambient Temperature, day 49, UV8 membrane, 1.6 mm orifice): 84.4 mg/day
- Attractant Release Rate (5-day average per time point) ([1]; Ambient Temperature, day 55, UV8 membrane, 1.6 mm orifice): 83.8 mg/day
- Release Rate ([1]; Ambient, 16 hours, UV8 membrane, 1.6 mm orifice): 0.12 g/day
- Release Rate ([1]; Ambient, 16 hours, second, unexplained block of rows): 0.01 g/day
- Release Rate ([1]; Ambient, 24 hours, UV8 membrane, 1.6 mm orifice): 0.12 g/day
- Release Rate ([1]; Ambient, 24 hours, second, unexplained block of rows): 0.01 g/day
- Release Rate ([1]; Ambient, 51 hours, UV8 membrane, 1.6 mm orifice): 0.12 g/day
- Release Rate ([1]; Ambient, 51 hours, second, unexplained block of rows): 0.04 g/day
- Release Rate ([1]; Ambient, 88 hours, UV8 membrane, 1.6 mm orifice): 0.11 g/day
- Release Rate ([1]; Ambient, 88 hours, second, unexplained block of rows): 0.06 g/day
- Release Rate ([1]; Ambient, 96 hours, UV8 membrane, 1.6 mm orifice): 0.12 g/day
- Release Rate ([1]; Ambient, 96 hours, second, unexplained block of rows): 0.07 g/day
- Release Rate ([1]; Ambient, 112 hours, UV8 membrane, 1.6 mm orifice): 0.11 g/day
- Release Rate ([1]; Ambient, 112 hours, second, unexplained block of rows): 0.08 g/day
- Release Rate ([1]; Ambient, 120 hours, UV8 membrane, 1.6 mm orifice): 0.12 g/day
- Release Rate ([1]; Ambient, 120 hours, second, unexplained block of rows): 0.08 g/day
- Release Rate ([1]; Ambient, 144 hours, UV8 membrane, 1.6 mm orifice): 0.11 g/day
- Release Rate ([1]; Ambient, 144 hours, second, unexplained block of rows): 0.08 g/day
- Release Rate ([1]; Ambient, 168 hours, UV8 membrane, 1.6 mm orifice): 0.11 g/day
- Release Rate ([1]; Ambient, 168 hours, second, unexplained block of rows): 0.11 g/day
- Avg. Mass Loss ([2]; week 0, ave. temp. 25.10 ° C): 0.00 g
- Avg. Mass Remaining ([2]; week 0, ave. temp. 25.10 ° C): 14.94 g
- Avg. Release Rate ([2]; week 0, ave. temp. 25.10 ° C): 0.000 g/day
- Avg. Mass Loss ([2]; week 2, ave. temp. 26.30 ° C): 0.48 g
- Avg. Mass Remaining ([2]; week 2, ave. temp. 26.30 ° C): 14.46 g
- Avg. Release Rate ([2]; week 2, ave. temp. 26.30 ° C): 0.035 g/day
- Avg. Mass Loss ([2]; week 4, ave. temp. 26.90 ° C): 1.57 g
- Avg. Mass Remaining ([2]; week 4, ave. temp. 26.90 ° C): 13.37 g
- Avg. Release Rate ([2]; week 4, ave. temp. 26.90 ° C): 0.078 g/day
- Avg. Mass Loss ([2]; week 6, ave. temp. 27.10 ° C): 2.73 g
- Avg. Mass Remaining ([2]; week 6, ave. temp. 27.10 ° C): 12.21 g
- Avg. Release Rate ([2]; week 6, ave. temp. 27.10 ° C): 0.083 g/day
- Avg. Mass Loss ([2]; week 8, ave. temp. 24.40 ° C): 3.77 g
- Avg. Mass Remaining ([2]; week 8, ave. temp. 24.40 ° C): 11.17 g
- Avg. Release Rate ([2]; week 8, ave. temp. 24.40 ° C): 0.074 g/day
- Avg. Mass Loss ([2]; week 10, ave. temp. 22.60 ° C): 4.09 g
- Avg. Mass Remaining ([2]; week 10, ave. temp. 22.60 ° C): 10.85 g
- Avg. Release Rate ([2]; week 10, ave. temp. 22.60 ° C): 0.023 g/day
- Avg. Mass Loss ([2]; week 12, ave. temp. 21.50 ° C): 4.66 g
- Avg. Mass Remaining ([2]; week 12, ave. temp. 21.50 ° C): 10.28 g
- Avg. Release Rate ([2]; week 12, ave. temp. 21.50 ° C): 0.041 g/day
- Avg. Mass Loss ([2]; week 14, ave. temp. 19.90 ° C): 4.93 g
- Avg. Mass Remaining ([2]; week 14, ave. temp. 19.90 ° C): 10.01 g
- Avg. Release Rate ([2]; week 14, ave. temp. 19.90 ° C): 0.019 g/day
- Avg. Mass Loss ([2]; week 16, ave. temp. 17.70 ° C): 5.11 g
- Avg. Mass Remaining ([2]; week 16, ave. temp. 17.70 ° C): 9.83 g
- Avg. Release Rate ([2]; week 16, ave. temp. 17.70 ° C): 0.013 g/day
- Avg. Mass Loss ([2]; week 18, ave. temp. 15.30 ° C): 5.30 g
- Avg. Mass Remaining ([2]; week 18, ave. temp. 15.30 ° C): 9.64 g
- Avg. Release Rate ([2]; week 18, ave. temp. 15.30 ° C): 0.013 g/day
- Avg. Mass Loss ([2]; week 20, ave. temp. 14.40 ° C): 5.59 g
- Avg. Mass Remaining ([2]; week 20, ave. temp. 14.40 ° C): 9.35 g
- Avg. Release Rate ([2]; week 20, ave. temp. 14.40 ° C): 0.021 g/day
- Avg. Mass Loss ([2]; week 24, ave. temp. 11.70 ° C): 5.86 g
- Avg. Mass Remaining ([2]; week 24, ave. temp. 11.70 ° C): 9.08 g
- Avg. Release Rate ([2]; week 24, ave. temp. 11.70 ° C): 0.009 g/day
- Avg. Mass Loss ([2]; week 28, ave. temp. […] C): 6.20 g
- Avg. Mass Remaining ([2]; week 28, ave. temp. […] C): 8.74 g
- Avg. Release Rate ([2]; week 28, ave. temp. […] C): 0.012 g/day
- Avg. Mass Loss ([2]; week 31, ave. temp. […] C): 6.80 g
- Avg. Mass Remaining ([2]; week 31, ave. temp. […] C): 8.14 g
- Avg. Release Rate ([2]; week 31, ave. temp. […] C): 0.028 g/day
- Avg. Mass Loss ([2]; week 35, ave. temp. 12.60 ° C): 7.29 g
- Avg. Mass Remaining ([2]; week 35, ave. temp. 12.60 ° C): 7.65 g
- Avg. Release Rate ([2]; week 35, ave. temp. 12.60 ° C): 0.018 g/day
- Avg. Mass Loss ([2]; week 38, ave. temp. 13.50 ° C): 7.56 g
- Avg. Mass Remaining ([2]; week 38, ave. temp. 13.50 ° C): 7.38 g
- Avg. Release Rate ([2]; week 38, ave. temp. 13.50 ° C): 0.013 g/day
- Avg. Mass Loss ([2]; week 39, ave. temp. 13.30 ° C): 7.80 g
- Avg. Mass Remaining ([2]; week 39, ave. temp. 13.30 ° C): 7.14 g
- Avg. Release Rate ([2]; week 39, ave. temp. 13.30 ° C): 0.033 g/day
- Avg. Mass Loss ([2]; week 41, ave. temp. 15.80 ° C): 8.12 g
- Avg. Mass Remaining ([2]; week 41, ave. temp. 15.80 ° C): 6.82 g
- Avg. Release Rate ([2]; week 41, ave. temp. 15.80 ° C): 0.023 g/day
- Avg. Mass Loss ([2]; week 43, ave. temp. 16.50 ° C): 8.44 g
- Avg. Mass Remaining ([2]; week 43, ave. temp. 16.50 ° C): 6.50 g
- Avg. Release Rate ([2]; week 43, ave. temp. 16.50 ° C): 0.023 g/day
- Avg. Mass Loss ([2]; week 46, ave. temp. 18.10 ° C): 9.17 g
- Avg. Mass Remaining ([2]; week 46, ave. temp. 18.10 ° C): 5.77 g
- Avg. Release Rate ([2]; week 46, ave. temp. 18.10 ° C): 0.035 g/day
- Avg. Mass Loss ([2]; week 47, ave. temp. 20.40 ° C): 9.48 g
- Avg. Mass Remaining ([2]; week 47, ave. temp. 20.40 ° C): 5.46 g
- Avg. Release Rate ([2]; week 47, ave. temp. 20.40 ° C): 0.044 g/day
